ChEMBL document CHEMBL1212695, “An allosteric potentiator of M4 mAChR modulates hippocampal synaptic transmission” (Nat Chem Biol, 2008)
The source made the active and inactive calls. The rule behind the calls is not given here.

What was measured:
[1] = molecular target: T1, Muscarinic acetylcholine receptor M4 (Rattus norvegicus) (UniProt P08485); assay: Agonist activity at muscarinic M4 receptor in Sprague-Dawley rat hippocampal CA1 pyramidal neuron assessed as inhibitory postsynaptic current amplitude at 5 uM by whole-cell electrophysiology relative to control; assay type: functional, tissue-based; set-up: scale not given: the % may be the effect or the level left; conditions: Hippocampus
T1 sequence (whole entry): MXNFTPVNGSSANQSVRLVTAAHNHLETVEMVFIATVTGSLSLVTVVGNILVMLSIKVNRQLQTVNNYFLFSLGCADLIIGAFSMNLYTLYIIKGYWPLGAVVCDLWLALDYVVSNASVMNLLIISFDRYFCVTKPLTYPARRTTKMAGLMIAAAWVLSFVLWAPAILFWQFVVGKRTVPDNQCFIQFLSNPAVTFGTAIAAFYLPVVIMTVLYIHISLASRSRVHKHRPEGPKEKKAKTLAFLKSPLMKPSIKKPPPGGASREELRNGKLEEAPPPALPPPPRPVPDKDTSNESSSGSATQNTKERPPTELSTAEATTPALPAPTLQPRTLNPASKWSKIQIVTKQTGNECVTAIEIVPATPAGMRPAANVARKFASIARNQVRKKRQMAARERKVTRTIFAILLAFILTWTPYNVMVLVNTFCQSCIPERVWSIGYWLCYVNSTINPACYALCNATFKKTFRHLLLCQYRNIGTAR

[2] = molecular target: T1, Muscarinic acetylcholine receptor M4 (Rattus norvegicus); assay: Displacement of [3H]NMS from rat recombinant muscarinic M4 receptor expressed in CHO cells up to 30 uM after 2 hrs by microplate scintillation counting; assay type: cell-based
CHO [3] = assay: Agonist activity at P2Y1 receptor in CHO cells assessed as induction of calcium mobilization at 10 uM after 1 hr by fluorescence assay; assay type: functional, cell-based; conditions: Cricetulus griseus
[4] = molecular target: Muscarinic acetylcholine receptor M3 (Rattus norvegicus) (UniProt P08483); assay: Displacement of [3H]NMS from rat recombinant muscarinic M3 receptor expressed in CHO cells after 2 hrs by microplate scintillation counting; assay type: cell-based
[5] = molecular target: T2, Muscarinic acetylcholine receptor M4 (Mus musculus) (UniProt P32211); assay: Agonist activity at muscarinic M4 receptor in wild type mouse hippocampal CA1 pyramidal neuron assessed as reduction of inhibitory postsynaptic current amplitude at 2 uM by whole-cell electrophysiology relative to control; assay type: functional, tissue-based; conditions: Hippocampus
T2 sequence (whole entry): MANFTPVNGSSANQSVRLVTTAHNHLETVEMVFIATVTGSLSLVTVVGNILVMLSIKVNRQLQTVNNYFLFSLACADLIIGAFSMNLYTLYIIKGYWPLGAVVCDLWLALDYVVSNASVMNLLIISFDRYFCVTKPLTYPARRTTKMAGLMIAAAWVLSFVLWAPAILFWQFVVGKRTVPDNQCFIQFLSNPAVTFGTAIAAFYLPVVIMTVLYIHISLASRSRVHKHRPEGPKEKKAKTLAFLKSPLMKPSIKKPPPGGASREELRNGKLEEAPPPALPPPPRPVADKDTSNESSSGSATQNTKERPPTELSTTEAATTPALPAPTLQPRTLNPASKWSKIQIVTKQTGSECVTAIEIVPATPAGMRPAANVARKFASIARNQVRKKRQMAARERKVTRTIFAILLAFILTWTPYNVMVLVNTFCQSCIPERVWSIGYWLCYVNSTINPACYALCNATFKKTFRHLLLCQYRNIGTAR

[6] = molecular target: T3, Muscarinic acetylcholine receptor M5 (Rattus norvegicus) (UniProt P08911); assay: Displacement of [3H]NMS from rat recombinant muscarinic M5 receptor expressed in CHO cells after 2 hrs by microplate scintillation counting; assay type: cell-based
T3 sequence (whole entry): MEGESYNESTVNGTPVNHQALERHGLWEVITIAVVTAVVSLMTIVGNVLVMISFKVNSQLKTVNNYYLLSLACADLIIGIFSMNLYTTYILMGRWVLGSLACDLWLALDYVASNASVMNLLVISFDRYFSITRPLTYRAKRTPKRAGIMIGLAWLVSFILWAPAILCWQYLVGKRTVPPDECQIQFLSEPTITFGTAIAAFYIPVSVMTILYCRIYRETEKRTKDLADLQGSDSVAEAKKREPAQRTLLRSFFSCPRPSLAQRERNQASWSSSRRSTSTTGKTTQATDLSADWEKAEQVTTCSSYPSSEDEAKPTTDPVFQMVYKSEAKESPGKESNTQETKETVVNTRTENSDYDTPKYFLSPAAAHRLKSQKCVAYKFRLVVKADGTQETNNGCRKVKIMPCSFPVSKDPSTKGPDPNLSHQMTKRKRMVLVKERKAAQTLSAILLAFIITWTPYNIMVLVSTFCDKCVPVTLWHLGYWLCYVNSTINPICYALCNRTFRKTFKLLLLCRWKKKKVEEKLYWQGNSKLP

[7] = molecular target: T1, Muscarinic acetylcholine receptor M4 (Rattus norvegicus); assay: Agonist activity at muscarinic M4 receptor in Sprague-Dawley rat hippocampal CA1 pyramidal neuron assessed as increase in carbachol-induced reduction in excitatory postsynaptic current at 5 uM by whole-cell electrophysiology relative to control; assay type: functional, tissue-based; set-up: scale not given: the % may be the effect or the level left; conditions: Hippocampus
[8] = molecular target: T3, Muscarinic acetylcholine receptor M5 (Rattus norvegicus); assay: Agonist activity at rat recombinant muscarinic M5 receptor expressed in CHO cells assessed as induction of calcium mobilization at 10 uM after 1 hr by fluorescence assay; assay type: functional, cell-based
CHO [9] = assay: Allosteric activation at P2Y1 receptor in CHO cells assessed as potentiation of acetylcholine-induced calcium mobilization at 10 uM after 1 hr by fluorescence assay; assay type: cell-based; conditions: Cricetulus griseus
[10] = molecular target: T1, Muscarinic acetylcholine receptor M4 (Rattus norvegicus); assay: Agonist activity at muscarinic M4 receptor in Sprague-Dawley rat hippocampal CA1 pyramidal neuron assessed as reduction of excitatory postsynaptic current at 1 uM by whole-cell electrophysiology relative to control; assay type: functional, tissue-based; set-up: scale not given: the % may be the effect or the level left; conditions: Hippocampus
[11] = molecular target: T1, Muscarinic acetylcholine receptor M4 (Rattus norvegicus); assay: Allosteric activation of rat recombinant muscarinic M4 receptor expressed in CHO cells assessed as fold decrease in acetylcholine Ki for displacement of [3H]NMS from active binding site at 10 uM after 2 hrs by microplate scintillation counting; assay type: cell-based
[12] = molecular target: T1, Muscarinic acetylcholine receptor M4 (Rattus norvegicus); assay: Agonist activity at muscarinic M4 receptor in Sprague-Dawley rat hippocampal CA1 pyramidal neuron assessed as excitatory postsynaptic current amplitude at 5 uM by whole-cell electrophysiology relative to control; assay type: functional, tissue-based; conditions: Hippocampus

Muscarinic acetylcholine receptor M3 (Rattus norvegicus), sequence (P08483 whole entry, looked up): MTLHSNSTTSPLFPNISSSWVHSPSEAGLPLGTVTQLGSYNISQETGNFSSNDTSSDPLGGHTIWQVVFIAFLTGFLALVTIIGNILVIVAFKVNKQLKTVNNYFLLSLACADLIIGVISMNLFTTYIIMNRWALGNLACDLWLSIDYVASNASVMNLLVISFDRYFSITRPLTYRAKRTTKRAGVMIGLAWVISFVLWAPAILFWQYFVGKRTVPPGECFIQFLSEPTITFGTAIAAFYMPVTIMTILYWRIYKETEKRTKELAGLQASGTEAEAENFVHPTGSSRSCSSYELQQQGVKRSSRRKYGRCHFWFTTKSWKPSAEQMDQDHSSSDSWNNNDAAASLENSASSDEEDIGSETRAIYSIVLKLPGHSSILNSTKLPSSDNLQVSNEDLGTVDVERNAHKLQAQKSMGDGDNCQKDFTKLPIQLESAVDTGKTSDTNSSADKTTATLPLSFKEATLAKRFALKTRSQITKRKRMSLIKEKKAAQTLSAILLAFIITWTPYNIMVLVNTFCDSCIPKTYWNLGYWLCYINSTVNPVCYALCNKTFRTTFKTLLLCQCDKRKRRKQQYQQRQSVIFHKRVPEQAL

Cc1cc(C)c2c(N)c(C(=O)NCc3ccc(Cl)cc3)sc2n1
Activity [1]: 98.5% | Activity [2]: inactive | Activity (CHO [3]): inactive | Activity [4]: inactive | inhibition [5]: 56% | Activity [6]: inactive | Activity [7]: 36.9% | Activity [8]: inactive | Activity (CHO [9]): inactive | Activity [10]: 60.5% | fold change (FC) [11]: 14 | Activity [12]: 108%
